Source: US11066482B2, “Specific plasmin inactivation by anticatalytic antibody” (priority 2017, dated 2021)
Each block holds one molecule with its values, some of them ahead of it.

Legend:
[1] = target: plasmin-mediated cleavage of factor V (Homo sapiens, UniProt P00747); test: Factor V cleavage by plasmin, SDS-PAGE; assay type: biochemical; details: EACA 1 mM or Pi 5 ug, 1 hr RT
Protocol: FIGS. 4A-4D show comparative inhibition of factor V cleavage and human clot fibrinolysis (dissolution) by Pi, EACA and a2AP. […] The relative migration of molecular weight standards is shown (kDa). […] Human plasma was clotted with CaCl2 (10 mM) and thrombin (1 U/ml) in the presence of trace amounts of 1251 fibrinogen for 1 h at 37 deg. C. After washing in 1 ml of TBS pH 7.4, tPA (5 nM) was added in the presence of various amounts of Pi (62.5 to 1000 nM), EACA (0.125 mM to 2 mM) or no inhibitor. After 2.5 h the amount of fibrinolysis was determined by measuring the amount of 125I-fibrin dissolved in the supernatant. Means of duplicate observations are shown. […] Clots were formed as above in the presence of human plasminogen (2 uM) and a2AP (1 uM) or Pi (1 uM) and various amounts of tPA (0-10 nM). Clot dissolution was monitored in duplicate over 2 h in microtiter plate wells at A405 nm. […] Human plasma clots were mixed with various concentrations of Pi IgG, Pi Fab and chimeric Pi Fab (25 nM-400 nM) and plasmin was activated by urokinase. The amount of clot lysis was determined as described in Methods.
Factor V cleavage. Human factor V (2 ug, IHFV, Innovative Research) was mixed with plasmin (0.05 ug) for 1 hr at RT in the presence of EACA (1 mM), Pi (5 ug) or a control monoclonal antibody (digoxin, 5 ug). […] Protein bands were detected by staining with Coomassie blue dye.

fibrinolytic bleeding = test: Fibrinolytic bleeding assay in vivo (humanized tail bleeding model); design: species or system mice; details: EACA 510 micromole/kg intravenously
Protocol: Anesthetized mice were treated in a randomized, blinded fashion with saline (Control), Pi (100 nmole/kg) or EACA (510 micromole/kg) intravenously. Human plasminogen (100 nmole/kg) and plasminogen activator (80,000 IU/kg) were given over 60 min. Tail bleeding was initiated 40 min. after the infusion. Tails were pre-warmed for 5 mins in 3 mL of 37° C. saline and bleeding was monitored as described.36,37 N=5-6, Means±SE are shown. *p<0.05, **p<0.01; ns, not significant. Kruskal Wallis one way ANOVA, Dunn's corrections.
Fibrinolytic bleeding assays in vivo. Anesthetized mice were treated in a randomized, blinded fashion with saline (Control), Pi (100 nmole/kg) or EACA (510 micromole/kg). Human plasminogen (100 nmole/kg) and plasminogen activator (80,000 IU/kg) were given over 60 min. Tail bleeding started 40 min. after the infusion. Tails were pre-warmed for 5 mins in 3 mL of 37° C. saline as described.(27, 28).
Suppression of fibrinolytic bleeding in vivo. The potential utility of the Pi for suppression of fibrinolytic bleeding was examined in vivo in randomized, blinded studies of surgical arterial and venous hemorrhage.

[2] = test system: plasmin-mediated fibrinolysis of human fibrin clots; test: Fibrinolysis of 125I-fibrin human plasma clots with tPA, EACA vs Pi; assay type: biochemical; details: tPA 5 nM, 2.5 h
[3] = in vivo; cited from earlier work
Plasmin = Plasmin (Homo sapiens, UniProt P00747); test: Effect of mouse or chimeric Fab on plasmin activity, S2251; assay type: biochemical; details: plasmin 25 nM, Fab 0-200 nM, S2251 0.5 mM
Protocol: FIGS. 2A-2D show comparative inhibition of plasmin activity by Pi EACA and a2AP. […] The percent residual activity of plasmin as a function of the log concentration of inhibitor is shown. […] Human plasmin (100 nM, Hematologic Technologies, Inc.) was mixed with or without Pi (50 nM) in the presence of the substrate S2251 (0.1 to 4 mM). The initial rate of substrate cleavage (6 min.) was monitored at A405. Data were plotted and analyzed using Michaelis-Menten kinetics by the Graphpad Prism Program. Means (duplicate observations) are shown and are representative of 4 separate experiments. […] The means of duplicate observations are shown. […] Plasmin (25 nM) was mixed with various concentrations (0-200 nM) of mouse Fab or chimeric Fab (cFab) and S2251 (0.5 mM) in TBS buffer pH 7.4. Plasmin activity was measured by the release of paranitroanilide product at A405 over time.
The effects of mouse or chimeric Fab on plasmin activity were examined. Plasmin (25 nM) was mixed with various concentrations (0-200 nM) of mouse Fab or chimeric Fab (cFab) and S2251 (0.5 mM) in TBS buffer pH 7.4. Plasmin activity was measured by the release of paranitroanilide product at A405 over time.

human plasma clots = test: Clot lysis assay of Pi IgG, Fab and chimeric Fab, urokinase; assay type: biochemical; details: 25 nM-400 nM, 30 min
Protocol: FIGS. 4A-4D show comparative inhibition of factor V cleavage and human clot fibrinolysis (dissolution) by Pi, EACA and a2AP. […] The relative migration of molecular weight standards is shown (kDa). […] Human plasma was clotted with CaCl2 (10 mM) and thrombin (1 U/ml) in the presence of trace amounts of 1251 fibrinogen for 1 h at 37 deg. C. After washing in 1 ml of TBS pH 7.4, tPA (5 nM) was added in the presence of various amounts of Pi (62.5 to 1000 nM), EACA (0.125 mM to 2 mM) or no inhibitor. After 2.5 h the amount of fibrinolysis was determined by measuring the amount of 125I-fibrin dissolved in the supernatant. Means of duplicate observations are shown. […] Clots were formed as above in the presence of human plasminogen (2 uM) and a2AP (1 uM) or Pi (1 uM) and various amounts of tPA (0-10 nM). Clot dissolution was monitored in duplicate over 2 h in microtiter plate wells at A405 nm. […] The amount of clot lysis was determined as described in Methods.
The effects of Pi IgG, Fab or chimeric Fab were also compared in a clot lysis assay in microtiter plates. […] C. was monitored at 405 nm. The percent clot dissolution at 30 min. was determined as the percent change in peak turbidity from baseline=100%×(peak absorbance−30 min. absorbance)/(peak absorbance−baseline absorbance).

Chain of plasmin-mediated cleavage of factor V (P00747 97-580 limits assumed): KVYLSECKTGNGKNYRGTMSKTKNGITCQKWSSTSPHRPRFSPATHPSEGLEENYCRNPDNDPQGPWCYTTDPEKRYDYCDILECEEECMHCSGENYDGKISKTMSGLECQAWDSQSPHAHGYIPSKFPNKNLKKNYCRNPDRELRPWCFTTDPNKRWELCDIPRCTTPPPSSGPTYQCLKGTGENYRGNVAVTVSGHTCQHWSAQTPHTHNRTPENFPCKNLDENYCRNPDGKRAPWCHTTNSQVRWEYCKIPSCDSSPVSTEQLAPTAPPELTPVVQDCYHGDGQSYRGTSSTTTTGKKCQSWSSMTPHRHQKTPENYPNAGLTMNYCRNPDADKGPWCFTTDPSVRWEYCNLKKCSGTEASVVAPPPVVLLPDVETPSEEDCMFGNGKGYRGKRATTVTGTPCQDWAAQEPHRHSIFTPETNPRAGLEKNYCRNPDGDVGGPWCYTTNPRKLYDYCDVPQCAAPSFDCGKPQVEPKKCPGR
Chain of plasmin-mediated cleavage of factor V (P00747 581-810 limits assumed): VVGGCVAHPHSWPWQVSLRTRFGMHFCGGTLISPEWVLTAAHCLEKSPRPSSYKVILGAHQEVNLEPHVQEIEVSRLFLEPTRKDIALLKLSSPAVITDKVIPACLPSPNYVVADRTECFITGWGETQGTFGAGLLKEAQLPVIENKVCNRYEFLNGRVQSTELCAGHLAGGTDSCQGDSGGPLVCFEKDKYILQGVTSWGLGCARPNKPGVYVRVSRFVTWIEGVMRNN
Chain of Plasmin (P00747 97-580 limits assumed): as the sequence (P00747 97-580 limits assumed) above
Chain of Plasmin (P00747 581-810 limits assumed): as the sequence (P00747 581-810 limits assumed) above

effect on Factor V cleavage by plasmin [1]: slightly diminished Factor V cleavage
Molecule: NCCCCCC(=O)O [EACA, epsilon amino caproic acid, reference compound]
effect on bleeding time vs saline (fibrinolytic bleeding): did not reduce bleeding time or blood loss | effect on blood loss vs saline (fibrinolytic bleeding): did not reduce bleeding time or blood loss | fold less potent than the Pi in suppressing fibrinolysis [2]: approximately 5,000 fold | effect on fibrinolysis of human fibrin clots ([2]; Pi 62.5 to 1000 nM, EACA 0.125 mM to 2 mM): diminished fibrinolysis

Molecule: NC[C@H]1CC[C@H](C(=O)O)CC1 [Tranexamic acid, tranexamic acid]
excreted via the urine unchanged [3]: 95%

inhibition of plasmin activity with tripeptide substrate (Plasmin): potently inhibited plasmin activity | inhibition of clot lysis by Pi molecular forms (human plasma clots): effectively inhibited clot lysis
B1: mouse Fab: Fab fragment of the Pi lacking the Fc domain (antibody, V domains shown)
VH: EVKLLESGGGLVQPGGSLKLSCAASGFDFSRYWMSWVRQAPGKGLEWIGEINPDSSTINYTPSLKDKFIISRDNAKNSLYLQMSKVRSEDTALYYCASYCGYSYDALDCWGQGTSVTVSS
VL: DIQMTQSPSSLSASLGGKVSITCKASQDINKYISWYQHKPGKGPRLLIHYTSTLQPGIPSRFSGSGSGRDYSFSISNLEPEDIATYYCLQYDNLYTFGGGTKLEIK
